# Laboratory results from patent US20100227844A1, “CANNABINOID-1 RECEPTOR MODULATORS USEFUL FOR THE TREATMENT OF ALZHEIMER'S DISEASE” (priority 2007, published 2010).
# pEC50, pIC50: −log10 of the molar value.
# Legend:
# [1] = biological target: recombinant human CB1 receptor (Homo sapiens, UniProt P21554); assay: Cannabinoid Receptor-1 (CB1) Binding (IC50) Assay; details: [3H]CP-55940 0.6 nM, CHO cell membranes
# [2] = biological target: recombinant human CB1 receptor expressed in CHO cells (Homo sapiens, UniProt P21554); assay: Cannabinoid Receptor-1 (CB1) Functional Activity (EC50) Assay; format: cell-based; details: forskolin-stimulated intracellular cAMP
# [3] = tested on: mice; details: Mazzola et al.; cited from earlier work
# [4] = tested on: rodent model of episodic memory; details: in combination with Donepezil; Wise et al.; cited from earlier work
# [5] = tested on: rodent models; details: naïve as well as scopolamine or Aβ-treated rodent models; Terranova et al.; cited from earlier work
# Sequence of recombinant human CB1 receptor (P21554 whole entry): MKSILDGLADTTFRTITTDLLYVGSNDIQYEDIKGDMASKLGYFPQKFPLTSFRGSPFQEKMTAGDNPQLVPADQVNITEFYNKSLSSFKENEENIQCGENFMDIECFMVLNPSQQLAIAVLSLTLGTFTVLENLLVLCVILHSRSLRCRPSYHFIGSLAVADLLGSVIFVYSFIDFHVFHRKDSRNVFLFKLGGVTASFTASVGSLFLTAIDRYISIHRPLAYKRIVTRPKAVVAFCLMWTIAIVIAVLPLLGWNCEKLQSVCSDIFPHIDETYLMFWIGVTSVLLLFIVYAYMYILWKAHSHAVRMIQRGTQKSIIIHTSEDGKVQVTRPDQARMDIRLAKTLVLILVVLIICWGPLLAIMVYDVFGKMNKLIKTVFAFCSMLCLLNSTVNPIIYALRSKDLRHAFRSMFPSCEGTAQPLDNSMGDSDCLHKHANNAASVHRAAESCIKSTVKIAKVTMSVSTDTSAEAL
# Sequence of recombinant human CB1 receptor expressed in CHO cells (P21554 whole entry): as above
SMILES,pIC50 [1],pEC50 [2],effect on memory deficit induced by Aβ-administration [3],effect on cognition scores [4],effect on learning and memory performance [5]
"CC(NC(=O)C(C)(C)Oc1ccc(C(F)(F)F)cn1)C(CC1CCCC1)c1cccc(C#N)c1 (single isomer, unassigned) [Example I-62, N-(2-(3-cyano-phenyl)-3-cyclopentyl-1-methylpropyl)-2-methyl-2((5-(trifluoromethyl)-pyridin-2-yl)oxy)-propanamide]",9.48,8.70,–,–,–
CC(NC(=O)C(C)(C)Oc1ccc(Cl)cn1)C(Cc1ccc(Cl)cc1)c1ccsc1 (stereo not drawn) [Example I-59],8.14,7.85,–,–,–
"CC(NC(=O)C(C)(C)Oc1ccccn1)C(Cc1ccc(Cl)cc1)c1ccccc1 (stereo not drawn) [Example I-6, N-[3-(4-Chloro-phenyl)-1-methyl-2-phenylpropyl]-2-(2-pyridyloxy)-2-methylpropanamide]",8.64,8.68,–,–,–
"CC(NC(=O)C(C)(C)Oc1ccc(C(F)(F)F)cn1)C(Cc1ccc(Cl)cc1)c1cncc(C#N)c1 (single isomer, unassigned) [Example I-39, N-[3-(4-Chloro-phenyl)-2-(5-cyano-3-pyridyl)-1-methylpropyl]-2-(5-trifluoromethyl-2-pyridyloxy)-2-methylpropanamide]",8.52,8.82,–,–,–
Cc1c(C(=O)NN2CCCCC2)nn(-c2ccc(Cl)cc2Cl)c1-c1ccc(Cl)cc1 [SR 141716],–,–,improves the memory deficit,–,–
Cc1c(C(=O)NN2CCCCC2)nn(-c2ccc(Cl)cc2Cl)c1-c1ccc(Cl)cc1 [rimonabant],–,–,–,additive effects on cognition scores,improves learning and memory performance
CC(NC(=O)C(C)(C)Oc1ccc(C(F)(F)F)cn1)C(Cc1ccc(Cl)cc1)c1cc(C#N)c[n+]([O-])c1 (stereo not drawn) [Example I-64],7.53,7.89,–,–,–
"CC(NC(=O)C(C)(C)Oc1ccccn1)C(Cc1ccc(Cl)cc1)c1cc(F)cc(F)c1 (single isomer, unassigned) [Example I-25, N-[3-(4-Chloro-phenyl)-2-(3,5-difluorophenyl)-1-methylpropyl]-2-methyl-2-(2-pyridyloxy)-propanamide]",9.35,8.88,–,–,–
CC(C)(F)[C@H](c1cc(F)cc(C#N)c1)C1CN([C@@H](c2ccc(C#N)cc2)c2cccc(C#N)c2)C1 [II],8.52,8.70,–,–,–
"CC(NC(=O)C(C)(C)Oc1cc(C(F)(F)F)ncn1)C(Cc1ccc(Cl)cc1)c1cccc(C#N)c1 (stereo not drawn) [Example I-36, N-[3-(4-Chloro-phenyl)-2-(3-cyanophenyl)-1-methylpropyl]-2-(6-trifluoromethyl-4-pyrimidyloxy)-2-methylpropanamide]",9.18,8.90,–,–,–
"CC(C)CC(c1cccc(C#N)c1)C(C)NC(=O)C(C)(C)Oc1ccc(C(F)(F)F)cn1 (single isomer, unassigned) [Example I-60, N-(2-(3-cyano-phenyl)-1,4-dimethylpentyl)-2-methyl-2((5-(trifluoromethyl)-pyridin-2-yl)oxy)-propanamide]",8.86,8.70,–,–,–
